Assays:
Assay in all cases: combination Emax (second highest fraction inhibited in the dose matrix, 72 h); higher = more inhibition; extreme values may be limits of the assay
[1] = system: RO82-W-1 (Thyroid Gland Carcinoma)
Method in brief: (§1)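 After 24 hours at 37°C and 5% CO2 in 1536-well plates, cells in DMEM/F12 or RPMI plus 10% FBS received two-drug dose matrices for 72 hours. Viability came from CellTiter-Glo 2.0 luminescence and was scaled as inhibition, anchored at 0 by vehicle wells and at 1 by blank wells. Combination Emax is taken as the second-highest inhibition in the matrix, and Bliss excess as the observed combination effect less EA + EB − EA·EB, with EA and EB the single-agent effects.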

[2] = system: KP-1N (Pancreatic Carcinoma)
Method in brief: as §1

[3] = system: SNU-5 (Gastric Carcinoma)
Method in brief: as §1

[4] = system: ES4 (Ewing's Sarcoma)
Method in brief: as §1

[5] = system: TE-15 (Esophageal Squamous Cell Carcinoma)
Method in brief: as §1

[6] = system: KURAMOCHI (Ovarian Carcinoma)
Method in brief: as §1

[7] = system: UM-UC-3 (Bladder Carcinoma)
Method in brief: as §1

[8] = system: CCRF-CEM (T-Lymphoblastic Leukemia)
Method in brief: as §1

[9] = system: TCCSUP (Bladder Carcinoma)
Method in brief: as §1

[10] = system: SK-ES-1 (Ewing's Sarcoma)
Method in brief: as §1

[11] = system: HOS (Osteosarcoma)
Method in brief: as §1

[12] = system: HCC1806 (Breast Carcinoma)
Method in brief: as §1

[13] = system: HT-1376 (Bladder Carcinoma)
Method in brief: as §1

[14] = system: ME-1 (Acute Myeloid Leukemia)
Method in brief: as §1

[15] = system: LS-180 (Colorectal Carcinoma)
Method in brief: as §1

[16] = system: T98G (Glioblastoma)
Method in brief: as §1

[17] = system: Hs-578-T (Breast Carcinoma)
Method in brief: as §1

[18] = system: DEL (T-Cell Non-Hodgkin's Lymphoma)
Method in brief: as §1

[19] = system: B-CPAP (Thyroid Gland Carcinoma)
Method in brief: as §1

Row | SMILES | combination Emax [1] | combination Emax [2] | combination Emax [3] | combination Emax [4] | combination Emax [5] | combination Emax [6] | combination Emax [7] | combination Emax [8] | combination Emax [9] | combination Emax [10] | combination Emax [11] | combination Emax [12] | combination Emax [13] | combination Emax [14] | combination Emax [15] | combination Emax [16] | combination Emax [17] | combination Emax [18] | combination Emax [19]
1 | CN(C)CCCOc1ccc(-c2ccc3ncc4c(c3c2)n(C2CCOCC2)c(=O)n4C)cn1 [AZD0156] + C=CCn1c(=O)c2cnc(Nc3ccc(N4CCN(C)CC4)cc3)nc2n1-c1cccc(C(C)(C)O)n1 [AZD1775] (first compound max 1 µM, partner max 1 µM) | 0.38 | 0.471 | 0.56 | 0.438 | 0.454 | 0.678 | 0.264 | 1 | 0.356 | 0.903 | 0.24 | 0.901 | 0.294 | 0.413 | 0.452 | 0.657 | 0.784 | 1 | 0.357
2 | CN(C)CCCOc1ccc(-c2ccc3ncc4c(c3c2)n(C2CCOCC2)c(=O)n4C)cn1 [AZD0156] + CCN(CCO)CCCOc1ccc2c(Nc3cc(CC(=O)Nc4cccc(F)c4)[nH]n3)ncnc2c1 [AZD2811] (first compound max 1 µM, 7x7, partner max 1 µM) | 0.308 | 0.293 | 0.162 | 0.159 | 0.0454 | 0.115 | 0.155 | 0.983 | 0.111 | 0.952 | 0.0916 | 0.124 | 0.0989 | 0.2 | 0.261 | 0.33 | 0.565 | 0.684 | 0.189
3 | CN(C)CCCOc1ccc(-c2ccc3ncc4c(c3c2)n(C2CCOCC2)c(=O)n4C)cn1 [AZD0156] + C[C@@H]1COCCN1C2=NC(=NC(=C2)C3(CC3)[S@](=N)(=O)C)C4=C5C=CNC5=NC=C4 [AZD6738] (first compound max 1 µM, 7x7, partner max 10 µM) | 0.34 | 0.399 | 0.882 | 0.844 | 0.734 | 0.597 | 0.475 | 0.99 | 0.591 | 0.855 | 0.706 | 0.937 | 0.655 | 0.394 | 0.694 | 0.855 | 0.885 | 0.988 | 0.479
4 | C=CCn1c(=O)c2cnc(Nc3ccc(N4CCN(C)CC4)cc3)nc2n1-c1cccc(C(C)(C)O)n1 [AZD1775] + C[C@@H]1COCCN1C2=NC(=NC(=C2)C3(CC3)[S@](=N)(=O)C)C4=C5C=CNC5=NC=C4 [AZD6738] (first compound max 1 µM, partner max 10 µM) | 0.445 | 0.397 | 0.934 | 0.826 | 0.761 | 0.743 | 0.682 | 1 | 0.755 | 0.926 | 0.911 | 0.961 | 0.67 | 0.51 | 0.809 | 0.873 | 0.921 | 1 | 0.811
5 | C=CCn1c(=O)c2cnc(Nc3ccc(N4CCN(C)CC4)cc3)nc2n1-c1cccc(C(C)(C)O)n1 [AZD1775] + O=C(c1cc(Cc2n[nH]c(=O)c3ccccc23)ccc1F)N1CCN(C(=O)C2CC2)CC1 [Olaparib] (first compound max 1 µM, partner max 10 µM) | 0.405 | 0.359 | 0.433 | 0.563 | 0.382 | 0.699 | 0.326 | 1 | 0.461 | 0.954 | 0.417 | 0.836 | 0.425 | 0.455 | 0.574 | 0.675 | 0.839 | 0.999 | 0.456
6 | CCN(CCO)CCCOc1ccc2c(Nc3cc(CC(=O)Nc4cccc(F)c4)[nH]n3)ncnc2c1 [AZD2811] + C=CCn1c(=O)c2cnc(Nc3ccc(N4CCN(C)CC4)cc3)nc2n1-c1cccc(C(C)(C)O)n1 [AZD1775] (first compound max 1 µM, partner max 1 µM) | 0.356 | 0.401 | 0.581 | 0.377 | 0.496 | 0.646 | 0.258 | 1 | 0.352 | 0.971 | 0.298 | 0.867 | 0.333 | 0.299 | 0.42 | 0.608 | 0.775 | 1 | 0.334
7 | CCN(CCO)CCCOc1ccc2c(Nc3cc(CC(=O)Nc4cccc(F)c4)[nH]n3)ncnc2c1 [AZD2811] + C[C@@H]1COCCN1C2=NC(=NC(=C2)C3(CC3)[S@](=N)(=O)C)C4=C5C=CNC5=NC=C4 [AZD6738] (first compound max 1 µM, 7x7, partner max 10 µM) | 0.405 | 0.199 | 0.907 | 0.666 | 0.731 | 0.569 | 0.429 | 1 | 0.604 | 0.968 | 0.652 | 0.931 | 0.54 | 0.516 | 0.754 | 0.799 | 0.839 | 0.99 | 0.407
8 | CCN(CCO)CCCOc1ccc2c(Nc3cc(CC(=O)Nc4cccc(F)c4)[nH]n3)ncnc2c1 [AZD2811] + O=C(c1cc(Cc2n[nH]c(=O)c3ccccc23)ccc1F)N1CCN(C(=O)C2CC2)CC1 [Olaparib] (first compound max 1 µM, 7x7, partner max 10 µM) | 0.195 | 0.0679 | 0.108 | 0.47 | 0.25 | 0.237 | 0.305 | 1 | 0.268 | 0.954 | 0.0874 | 0.265 | 0.218 | 0.394 | 0.36 | 0.453 | 0.622 | 0.823 | 0.231
9 | C[C@@H]1COCCN1c1cc(C2([S@](C)(=N)=O)CC2)nc(-c2ccnc3[nH]ccc23)n1 [AZD6738] + O=C(c1cc(Cc2n[nH]c(=O)c3ccccc23)ccc1F)N1CCN(C(=O)C2CC2)CC1 [Olaparib] (first compound max 10 µM, 7x7, partner max 10 µM) | 0.353 | 0.425 | 0.909 | 0.817 | 0.738 | 0.549 | 0.584 | 1 | 0.646 | 0.933 | 0.685 | 0.89 | 0.456 | 0.538 | 0.733 | 0.817 | 0.898 | 0.993 | 0.498
10 | Cc1cc2ncnn2cc1Nc1ncc2c(n1)n(C1CCOCC1)c(=O)n2C [AZD7648] + C=CCn1c(=O)c2cnc(Nc3ccc(N4CCN(C)CC4)cc3)nc2n1-c1cccc(C(C)(C)O)n1 [AZD1775] (first compound max 10 µM, partner max 1 µM) | 0.46 | 0.349 | 0.558 | 0.441 | 0.565 | 0.664 | 0.287 | 1 | 0.375 | 0.946 | 0.369 | 0.894 | 0.408 | 0.355 | 0.5 | 0.711 | 0.77 | 1 | 0.479
11 | Cc1cc2ncnn2cc1Nc1ncc2c(n1)n(C1CCOCC1)c(=O)n2C [AZD7648] + CCN(CCO)CCCOc1ccc2c(Nc3cc(CC(=O)Nc4cccc(F)c4)[nH]n3)ncnc2c1 [AZD2811] (first compound max 10 µM, 7x7, partner max 1 µM) | 0.358 | 0.134 | 0.354 | 0.279 | 0.283 | 0.238 | 0.298 | 1 | 0.387 | 0.964 | 0.273 | 0.281 | 0.235 | 0.27 | 0.388 | 0.467 | 0.623 | 0.727 | 0.283
12 | Cc1cc2ncnn2cc1Nc1ncc2c(n1)n(C1CCOCC1)c(=O)n2C [AZD7648] + CN(C)CCCOc1ccc(-c2ccc3ncc4c(c3c2)n(C2CCOCC2)c(=O)n4C)cn1 [AZD0156] (first compound max 10 µM, 7x7, partner max 1 µM) | 0.394 | 0.188 | 0.376 | 0.0963 | 0.236 | 0.192 | 0.236 | 0.521 | 0.197 | 0.503 | 0.273 | 0.271 | 0.2 | 0.213 | 0.358 | 0.266 | 0.513 | 0.412 | 0.286
13 | CS(=O)(=O)CCNCc1ccc(-c2ccc3ncnc(Nc4ccc(OCc5cccc(F)c5)c(Cl)c4)c3c2)o1 [Lapatinib] + NC1(c2ccc(-c3nc4ccn5c(=O)[nH]nc5c4cc3-c3ccccc3)cc2)CCC1 [MK-2206] (first compound max 10 µM, 7x7, partner max 10 µM) | 0.24 | – | 0.387 | – | 0.831 | 0.763 | 0.253 | 0.892 | – | – | 0.561 | 0.954 | 0.177 | 0.301 | 0.795 | 0.908 | 0.936 | – | 0.909
14 | CCc1c2c(nc3ccc(O)cc13)-c1cc3c(c(=O)n1C2)COC(=O)[C@]3(O)CC [SN-38] + O=C(c1cc(Cc2n[nH]c(=O)c3ccccc23)ccc1F)N1CCN(C(=O)C2CC2)CC1 [Olaparib] (first compound max 0.3 µM, 7x7, partner max 10 µM) | 0.469 | 0.645 | – | 0.767 | 0.811 | 0.651 | 0.985 | 1 | 0.665 | 1 | 0.96 | 0.974 | 0.0829 | 0.497 | 0.748 | 0.632 | 0.709 | 1 | 0.946
